Data on 37 compounds can be found in ChEMBL document CHEMBL6121019, “Design, synthesis and biological evaluation of bisnoralcohol derivatives as novel IRF4 inhibitors for the treatment of multiple myeloma” (Eur J Med Chem, 2025).

As usually defined, the IC50 is the concentration that inhibits the measured activity by half. A low value points to greater potency in that assay.

The assay concerns the target T1, Interferon regulatory factor 4 (Homo sapiens, UniProt Q15306).
T1 sequence (Q15306 whole entry): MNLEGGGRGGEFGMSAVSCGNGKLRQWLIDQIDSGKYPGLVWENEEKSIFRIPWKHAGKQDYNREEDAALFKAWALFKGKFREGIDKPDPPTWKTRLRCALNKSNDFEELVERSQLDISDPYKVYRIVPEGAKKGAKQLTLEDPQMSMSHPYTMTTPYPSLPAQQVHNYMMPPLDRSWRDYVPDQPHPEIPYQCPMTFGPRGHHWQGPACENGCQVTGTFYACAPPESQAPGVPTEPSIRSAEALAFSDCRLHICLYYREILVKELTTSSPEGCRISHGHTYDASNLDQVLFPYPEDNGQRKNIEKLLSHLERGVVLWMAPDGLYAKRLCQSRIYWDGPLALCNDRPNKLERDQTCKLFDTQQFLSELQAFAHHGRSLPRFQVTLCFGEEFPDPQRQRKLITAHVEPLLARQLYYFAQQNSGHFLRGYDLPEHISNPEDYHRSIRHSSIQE
The assay can be described thus: Inhibition of IRF4 (unknown origin) incubated for 1 hr by fluorescence polarization assay. For orientation: Polarisation of emitted light reports the rotation of a fluorescent probe.

Compound `COC(=O)[C@@H](C)[C@H]1CC[C@H]2[C@@H]3C(=O)C=C4C(C)(C)C(=O)C(C#N)=C[C@]4(C)[C@H]3CC[C@]12C` gave a 50% inhibitory concentration (IC50) greater than 20 µM.

In the case of `COc1ccc(NC(=O)[C@@H](C)[C@H]2CC[C@H]3[C@@H]4C(=O)C=C5C(C)(C)C(=O)C(C#N)=C[C@]5(C)[C@H]4CC[C@]23C)cc1OC`, half-maximal inhibition (IC50) was put at 18.8 µM. The result for `C[C@H](C(=O)Oc1ccc(C(F)(F)F)cc1)[C@H]1CC[C@H]2[C@@H]3C(=O)C=C4C(C)(C)C(=O)C(C#N)=C[C@]4(C)[C@H]3CC[C@]12C` reads greater than 20 µM. Take `CCOc1ccc(NC(=O)[C@@H](C)[C@H]2CC[C@H]3[C@@H]4C(=O)C=C5C(C)(C)C(=O)C(C#N)=C[C@]5(C)[C@H]4CC[C@]23C)cc1`: the concentration for half-maximal inhibition (IC50) was determined as 10.8 µM.

In the case of `C[C@H](C(=O)Nc1ccc(C(F)(F)F)cc1)[C@H]1CC[C@H]2[C@@H]3C(=O)C=C4C(C)(C)C(=O)C(C#N)=C[C@]4(C)[C@H]3CC[C@]12C`, the concentration for half-maximal inhibition (IC50) was greater than 20 µM. `CCCCOc1ccc(NC(=O)[C@@H](C)[C@H]2CC[C@H]3[C@@H]4C(=O)C=C5C(C)(C)C(=O)C(C#N)=C[C@]5(C)[C@H]4CC[C@]23C)cc1` showed a 50% inhibitory concentration (IC50) of 16.6 µM. That is a double-digit micromolar value.

For the compound `COc1ccccc1NC(=O)[C@@H](C)[C@H]1CC[C@H]2[C@@H]3C(=O)C=C4C(C)(C)C(=O)C(C#N)=C[C@]4(C)[C@H]3CC[C@]12C`, the midpoint of inhibition, the IC50, lay at 10.4 µM. This IC50 lies about 1.6-fold lower than the previous one.

For `CCc1ccc(NC(=O)[C@@H](C)[C@H]2CC[C@H]3[C@@H]4C(=O)C=C5C(C)(C)C(=O)C(C#N)=C[C@]5(C)[C@H]4CC[C@]23C)cc1`, half-maximal inhibition (IC50) required 12.8 µM. The result for `COc1ccc(NC(=O)CC[C@@H](C)[C@H]2CC[C@H]3[C@@H]4C(=O)C=C5C(C)(C)C(=O)C(C#N)=C[C@]5(C)[C@H]4CC[C@]23C)cc1` reads 17.9 µM. With `COc1ccc(NC(=O)C[C@@H](C)[C@H]2CC[C@H]3[C@@H]4C(=O)C=C5C(C)(C)C(=O)C(C#N)=C[C@]5(C)[C@H]4CC[C@]23C)cc1`, the IC50 turned out to be 15.1 µM.

For the compound `C[C@H](C(=O)OC1CCCC1)[C@H]1CC[C@H]2[C@@H]3C(=O)C=C4C(C)(C)C(=O)C(C#N)=C[C@]4(C)[C@H]3CC[C@]12C`, the IC50 is greater than 20 µM. Compound `C[C@H](C(=O)Oc1ccc(Cl)cc1)[C@H]1CC[C@H]2[C@@H]3C(=O)C=C4C(C)(C)C(=O)C(C#N)=C[C@]4(C)[C@H]3CC[C@]12C` gave an IC50 greater than 20 µM. For `C[C@H](C(=O)Nc1ccc2nccnc2c1)[C@H]1CC[C@H]2[C@@H]3C(=O)C=C4C(C)(C)C(=O)C(C#N)=C[C@]4(C)[C@H]3CC[C@]12C`, the IC50 was 5.62 µM. In the case of `C[C@H](C(=O)Nc1ccc2ncsc2c1)[C@H]1CC[C@H]2[C@@H]3C(=O)C=C4C(C)(C)C(=O)C(C#N)=C[C@]4(C)[C@H]3CC[C@]12C` it was 12.1 µM. Consider `CNC(=O)[C@@H](C)[C@H]1CC[C@H]2[C@@H]3C(=O)C=C4C(C)(C)C(=O)C(C#N)=C[C@]4(C)[C@H]3CC[C@]12C`, for which the IC50 was determined as 16.4 µM.

Take `C#CCNC(=O)[C@@H](C)[C@H]1CC[C@H]2[C@@H]3C(=O)C=C4C(C)(C)C(=O)C(C#N)=C[C@]4(C)[C@H]3CC[C@]12C`: the IC50 was greater than 20 µM. Turning to `C=CCNC(=O)[C@@H](C)[C@H]1CC[C@H]2[C@@H]3C(=O)C=C4C(C)(C)C(=O)C(C#N)=C[C@]4(C)[C@H]3CC[C@]12C`, the IC50 is greater than 20 µM. As to `C[C@H](C(=O)Nc1ccccc1O)[C@H]1CC[C@H]2[C@@H]3C(=O)C=C4C(C)(C)C(=O)C(C#N)=C[C@]4(C)[C@H]3CC[C@]12C`, 15 µM corresponded to half-maximal inhibition (IC50). Consider `CCNC(=O)[C@@H](C)[C@H]1CC[C@H]2[C@@H]3C(=O)C=C4C(C)(C)C(=O)C(C#N)=C[C@]4(C)[C@H]3CC[C@]12C`, for which the IC50 was greater than 20 µM. In turn, `C[C@H](C(=O)NC1CCCC1)[C@H]1CC[C@H]2[C@@H]3C(=O)C=C4C(C)(C)C(=O)C(C#N)=C[C@]4(C)[C@H]3CC[C@]12C` showed a concentration for half-maximal inhibition (IC50) greater than 20 µM.

Take `COc1ccc(NC(=O)CCC[C@@H](C)[C@H]2CC[C@H]3[C@@H]4C(=O)C=C5C(C)(C)C(=O)C(C#N)=C[C@]5(C)[C@H]4CC[C@]23C)cc1`: the IC50 was greater than 20 µM. Compound `C[C@H](C(=O)Nc1cncnc1)[C@H]1CC[C@H]2[C@@H]3C(=O)C=C4C(C)(C)C(=O)C(C#N)=C[C@]4(C)[C@H]3CC[C@]12C` yielded an IC50 of 9.65 µM. `COc1cccc(NC(=O)[C@@H](C)[C@H]2CC[C@H]3[C@@H]4C(=O)C=C5C(C)(C)C(=O)C(C#N)=C[C@]5(C)[C@H]4CC[C@]23C)c1`: the IC50 was 5.43 µM. In turn, `COc1cc(NC(=O)[C@@H](C)[C@H]2CC[C@H]3[C@@H]4C(=O)C=C5C(C)(C)C(=O)C(C#N)=C[C@]5(C)[C@H]4CC[C@]23C)cc(OC)c1OC` yielded an IC50 of 6.95 µM. Regarding `COc1ccc(OC(=O)[C@@H](C)[C@H]2CC[C@H]3[C@@H]4C(=O)C=C5C(C)(C)C(=O)C(C#N)=C[C@]5(C)[C@H]4CC[C@]23C)cc1`, inhibition was half-maximal at 9.37 µM (IC50).

For `CCCOC(=O)[C@@H](C)[C@H]1CC[C@H]2[C@@H]3C(=O)C=C4C(C)(C)C(=O)C(C#N)=C[C@]4(C)[C@H]3CC[C@]12C`, the IC50 was greater than 20 µM. As for `COc1cc(NC(=O)[C@@H](C)[C@H]2CC[C@H]3[C@@H]4C(=O)C=C5C(C)(C)C(=O)C(C#N)=C[C@]5(C)[C@H]4CC[C@]23C)cc(OC)c1`, the half-maximal inhibitory concentration (IC50) amounted to 7.06 µM. `CCOC(=O)[C@@H](C)[C@H]1CC[C@H]2[C@@H]3C(=O)C=C4C(C)(C)C(=O)C(C#N)=C[C@]4(C)[C@H]3CC[C@]12C` yielded a concentration for half-maximal inhibition (IC50) greater than 20 µM.

The compound `C[C@H](C(=O)NC1CCCCC1)[C@H]1CC[C@H]2[C@@H]3C(=O)C=C4C(C)(C)C(=O)C(C#N)=C[C@]4(C)[C@H]3CC[C@]12C` yielded an IC50 of 16.4 µM. Take `C[C@H](C(=O)O)[C@H]1CC[C@H]2[C@@H]3CC=C4C(C)(C)C(=O)C(C#N)=C[C@]4(C)[C@H]3CC[C@]12C`: the half-inhibitory concentration (IC50) is greater than 20 µM. `CCCNC(=O)[C@@H](C)[C@H]1CC[C@H]2[C@@H]3C(=O)C=C4C(C)(C)C(=O)C(C#N)=C[C@]4(C)[C@H]3CC[C@]12C` had an IC50 greater than 20 µM. Take `C[C@H](C(=O)Nc1nccs1)[C@H]1CC[C@H]2[C@@H]3C(=O)C=C4C(C)(C)C(=O)C(C#N)=C[C@]4(C)[C@H]3CC[C@]12C`: inhibition was half-maximal at 14.2 µM (IC50).

Turning to `C[C@H](C(=O)Nc1ccc(Cl)cc1)[C@H]1CC[C@H]2[C@@H]3C(=O)C=C4C(C)(C)C(=O)C(C#N)=C[C@]4(C)[C@H]3CC[C@]12C`, the IC50 was greater than 20 µM. `C[C@H](C(=O)Nc1cccnc1)[C@H]1CC[C@H]2[C@@H]3C(=O)C=C4C(C)(C)C(=O)C(C#N)=C[C@]4(C)[C@H]3CC[C@]12C` gave an IC50 of 5.05 µM. This counts as single-digit micromolar. `C[C@H](C(=O)Oc1ccccc1)[C@H]1CC[C@H]2[C@@H]3C(=O)C=C4C(C)(C)C(=O)C(C#N)=C[C@]4(C)[C@H]3CC[C@]12C`: the IC50 was determined as 8.1 µM. This IC50 lies about 1.6-fold higher than the previous one. Consider `CCCCc1ccc(NC(=O)[C@@H](C)[C@H]2CC[C@H]3[C@@H]4C(=O)C=C5C(C)(C)C(=O)C(C#N)=C[C@]5(C)[C@H]4CC[C@]23C)cc1`, for which the IC50 is greater than 20 µM.

In turn, `C[C@H](C(=O)Nc1ncco1)[C@H]1CC[C@H]2[C@@H]3C(=O)C=C4C(C)(C)C(=O)C(C#N)=C[C@]4(C)[C@H]3CC[C@]12C` displayed an IC50 of 7.61 µM.
